Test results from patent publication US4218436A, “Compounds and methods” (The Upjohn Company, priority 1979, dated 1980).

Tests used:
[1] = system: antiserum raised against 9-deoxy-9-methylene PGF2 (KLH Conjugate); assay: RIA cross-reactivity, displacement of [^3 H] PGE2 from antiserum (KLH Conjugate); format: binding, rabbit; details: relative to PGE2; ng. required to displace 50% of [^3 H] PGE2
Protocol: (§1) Five milligrams of KLH-PGE2 mimic conjugate is added to 2.25 ml. of sterile saline (0.9%) and 2.25 ml. of Freund's complete adjuvant and blended. 1.0 ml. of this mixture is injected subcutaneously at 20-30 sites on the flanks of four Albino New Zealand rabbits of 2-4 kg. mass. Each rabbit receives a dose of about 1 mg. On the same day, 1.0 ml. of attenuated pertussis vaccine is injected intramuscularly at four sites on the hindquarters of each rabbit.
(§2) A known amount of PGE-type compound in 0.1 ml. PBSG buffer at pH 7.4±0.2 and 0.1 ml. of the radiolabeled form of the same PGE-type compound (10,000 cpm/0.1 ml. PBSG) are introduced into a 12×75 mm. polypropylene tube. Antiserum (0.1 ml.) against the corresponding mimic is added at a dilution which will bind 50%±3% of the radiolabeled authentic PGE-type compound in the absence of competition from the unlabeled PGE-type compound. The tube is incubated for 1 hour at 25° and then 12-16 hours at 4°. Antibody bound and free fractions are separated with dextran-coated charcoal. Other separation techniques are acceptable.
(§3) The data below show the cross-reactivity of antiserum raised against 9-deoxy-9-methylene PGF2 to various PGE-type compounds, relative to PGE2. Percent crossreaction is defined as (ng. of PGE2 required to displace 50% of [^3 H] PGE2)/(ng. heterologous PG required to displace 50% of [^3 H] PGE2)×100.

[2] = system: antiserum raised against 9-deoxy-9-methylene PGF2 (BSA Conjugate); assay: RIA cross-reactivity, displacement of [^3 H] PGE2 from antiserum (BSA Conjugate); format: binding, rabbit; details: relative to PGE2; ng. required to displace 50% of [^3 H] PGE2
Protocol: as §1, §2, §3

## CCCCC[C@H](O)/C=C/[C@@H]1[C@@H](CCCCCCC(=O)O)[C@@H](O)C[C@H]1O [PGF1 α]
[1]
  % Cross-Reaction KLH Conjugate: 0.09%
[2]
  % Cross-Reaction BSA Conjugate: 2.9%
